Measurements: PMC9964023 (Marine Drugs, 2023)
pIC50: −log10 of the molar value. “Also recorded” adds a separate entry of the source. Bridge positions count the residues as written; N and C are the ends. Peptide text beside a SMILES is read from it.

Experiments:
Test in all cases: biochemical
[1] = molecular target: T1, dopamine transporter (DAT) (Rattus norvegicus, UniProt P23977)
T1 construct: brains were processed to yield synaptosomes as previously described; from tissue; host or cells: rat caudate synaptosomes

[2] = molecular target: T2, serotonin transporter (SERT) (Rattus norvegicus, UniProt P31652)
T2 construct: brains were processed to yield synaptosomes as previously described; from tissue; host or cells: rat whole brain minus caudate and cerebellum, synaptosomes

[3] = molecular target: T3, norepinephrine transporter (NET) (Rattus norvegicus, UniProt Q63380); assay type: biochemical
T3 construct: brains were processed to yield synaptosomes as previously described; from tissue; host or cells: rat whole brain minus caudate and cerebellum, synaptosomes
T3 sequence (Q63380 1-617): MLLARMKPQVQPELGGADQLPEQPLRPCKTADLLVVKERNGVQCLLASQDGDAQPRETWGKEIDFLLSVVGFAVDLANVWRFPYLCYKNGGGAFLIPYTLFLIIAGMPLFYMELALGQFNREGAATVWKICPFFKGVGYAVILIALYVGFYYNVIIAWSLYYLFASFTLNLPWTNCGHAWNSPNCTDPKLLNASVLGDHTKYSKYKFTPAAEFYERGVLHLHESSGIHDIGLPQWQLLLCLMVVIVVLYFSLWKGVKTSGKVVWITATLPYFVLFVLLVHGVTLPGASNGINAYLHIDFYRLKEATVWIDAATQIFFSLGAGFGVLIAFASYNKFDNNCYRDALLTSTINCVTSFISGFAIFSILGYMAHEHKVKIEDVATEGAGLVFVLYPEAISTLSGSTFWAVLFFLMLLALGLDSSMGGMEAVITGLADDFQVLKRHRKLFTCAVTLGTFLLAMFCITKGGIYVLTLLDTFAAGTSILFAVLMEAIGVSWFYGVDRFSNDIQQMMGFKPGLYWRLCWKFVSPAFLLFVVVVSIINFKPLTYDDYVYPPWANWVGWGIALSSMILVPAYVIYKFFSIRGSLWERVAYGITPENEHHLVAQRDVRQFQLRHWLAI

T1 sequence (P23977 whole entry): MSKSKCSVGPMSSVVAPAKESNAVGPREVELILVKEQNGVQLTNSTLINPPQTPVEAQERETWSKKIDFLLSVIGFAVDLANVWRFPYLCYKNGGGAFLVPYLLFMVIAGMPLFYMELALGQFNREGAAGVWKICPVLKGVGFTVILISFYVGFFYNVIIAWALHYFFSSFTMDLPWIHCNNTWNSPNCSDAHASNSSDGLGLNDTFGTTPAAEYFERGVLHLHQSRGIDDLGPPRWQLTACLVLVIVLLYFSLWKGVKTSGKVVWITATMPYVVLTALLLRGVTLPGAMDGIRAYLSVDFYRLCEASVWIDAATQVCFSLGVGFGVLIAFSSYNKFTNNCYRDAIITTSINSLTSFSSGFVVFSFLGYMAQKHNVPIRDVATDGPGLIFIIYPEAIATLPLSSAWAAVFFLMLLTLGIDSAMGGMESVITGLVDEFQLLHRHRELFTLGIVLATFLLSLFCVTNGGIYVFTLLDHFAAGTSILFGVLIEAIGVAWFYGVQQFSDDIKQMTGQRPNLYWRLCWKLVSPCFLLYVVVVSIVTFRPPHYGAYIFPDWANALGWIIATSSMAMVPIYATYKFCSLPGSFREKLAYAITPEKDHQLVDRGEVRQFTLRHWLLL
T2 sequence (P31652 whole entry): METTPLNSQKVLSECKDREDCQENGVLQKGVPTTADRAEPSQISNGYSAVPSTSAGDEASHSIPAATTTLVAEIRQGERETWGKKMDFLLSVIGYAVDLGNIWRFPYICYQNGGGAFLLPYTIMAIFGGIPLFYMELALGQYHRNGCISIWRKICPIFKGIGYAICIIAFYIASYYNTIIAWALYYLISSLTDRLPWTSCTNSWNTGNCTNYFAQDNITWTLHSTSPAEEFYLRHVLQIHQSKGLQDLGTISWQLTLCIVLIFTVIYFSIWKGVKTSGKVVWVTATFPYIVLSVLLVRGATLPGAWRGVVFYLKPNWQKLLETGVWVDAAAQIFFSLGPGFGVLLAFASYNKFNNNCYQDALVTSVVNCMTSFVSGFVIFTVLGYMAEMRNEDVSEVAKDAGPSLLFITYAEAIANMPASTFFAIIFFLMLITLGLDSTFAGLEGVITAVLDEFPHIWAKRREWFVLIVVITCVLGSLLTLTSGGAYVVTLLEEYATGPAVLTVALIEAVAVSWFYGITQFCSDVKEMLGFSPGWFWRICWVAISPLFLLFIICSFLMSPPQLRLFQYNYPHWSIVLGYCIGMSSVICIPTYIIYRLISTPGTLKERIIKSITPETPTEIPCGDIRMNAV

Structure (SMILES)	pIC50 [1]	pIC50 [2]	pIC50 [3]	activity at NET relative to ribbon isomer (in words) [3]
CSCC[C@@H]1NC(=O)[C@H](CCCNC(=N)N)NC(=O)[C@H](Cc2ccc(O)cc2)NC(=O)CNC(=O)[C@@H]2CSSC[C@@H](C(N)=O)NC(=O)[C@@H]3CCCN3C(=O)[C@H](C(C)C)NC(=O)[C@H](CSSC[C@H](NC(=O)[C@@H](NC(=O)[C@@H](N)CO)[C@@H](C)O)C(=O)N2)NC1=O [PnID A] (H-STCCGYRMCVPC-NH2; disulfide 3-9, 4-12)	< 4.00	< 4.00	< 4.00	more than ten times less activity; also recorded: much less active in inhibiting the rat NET
CSCC[C@@H]1NC(=O)[C@H](CCCNC(=N)N)NC(=O)[C@H](Cc2ccc(O)cc2)NC(=O)CNC(=O)[C@@H]2CSSC[C@H](NC1=O)C(=O)N[C@@H](C(C)C)C(=O)N1CCC[C@H]1C(=O)N[C@H](C(N)=O)CSSC[C@H](NC(=O)[C@@H](NC(=O)[C@@H](N)CO)[C@@H](C)O)C(=O)N2 [PnID B] (H-STCCGYRMCVPC-NH2; disulfide 3-12, 4-9)	–	–	5.00	–
